Test results taken from patent US12478620B2, “Cyano-substituted cyclic hydrazine derivative and application thereof” (E-nitiate Biopharmaceuticals (Hangzhou) Co., Ltd, priority 2019, dated 2025).
pIC50: −log10 of the molar value.

Assays:
JAK2 = JAK2 (Homo sapiens, UniProt O60674); assay: JAK kinase inhibitor activity detection (ULight-JAK-1 substrate, Eu-labeled anti-phosphotyrosine antibody), JAK2; assay type: biochemical; conditions: JAK2 0.125 nM, substrate 50 nM, ATP 10 μM, 1 h room temperature
JAK2, sequence (O60674 whole entry, species assumed): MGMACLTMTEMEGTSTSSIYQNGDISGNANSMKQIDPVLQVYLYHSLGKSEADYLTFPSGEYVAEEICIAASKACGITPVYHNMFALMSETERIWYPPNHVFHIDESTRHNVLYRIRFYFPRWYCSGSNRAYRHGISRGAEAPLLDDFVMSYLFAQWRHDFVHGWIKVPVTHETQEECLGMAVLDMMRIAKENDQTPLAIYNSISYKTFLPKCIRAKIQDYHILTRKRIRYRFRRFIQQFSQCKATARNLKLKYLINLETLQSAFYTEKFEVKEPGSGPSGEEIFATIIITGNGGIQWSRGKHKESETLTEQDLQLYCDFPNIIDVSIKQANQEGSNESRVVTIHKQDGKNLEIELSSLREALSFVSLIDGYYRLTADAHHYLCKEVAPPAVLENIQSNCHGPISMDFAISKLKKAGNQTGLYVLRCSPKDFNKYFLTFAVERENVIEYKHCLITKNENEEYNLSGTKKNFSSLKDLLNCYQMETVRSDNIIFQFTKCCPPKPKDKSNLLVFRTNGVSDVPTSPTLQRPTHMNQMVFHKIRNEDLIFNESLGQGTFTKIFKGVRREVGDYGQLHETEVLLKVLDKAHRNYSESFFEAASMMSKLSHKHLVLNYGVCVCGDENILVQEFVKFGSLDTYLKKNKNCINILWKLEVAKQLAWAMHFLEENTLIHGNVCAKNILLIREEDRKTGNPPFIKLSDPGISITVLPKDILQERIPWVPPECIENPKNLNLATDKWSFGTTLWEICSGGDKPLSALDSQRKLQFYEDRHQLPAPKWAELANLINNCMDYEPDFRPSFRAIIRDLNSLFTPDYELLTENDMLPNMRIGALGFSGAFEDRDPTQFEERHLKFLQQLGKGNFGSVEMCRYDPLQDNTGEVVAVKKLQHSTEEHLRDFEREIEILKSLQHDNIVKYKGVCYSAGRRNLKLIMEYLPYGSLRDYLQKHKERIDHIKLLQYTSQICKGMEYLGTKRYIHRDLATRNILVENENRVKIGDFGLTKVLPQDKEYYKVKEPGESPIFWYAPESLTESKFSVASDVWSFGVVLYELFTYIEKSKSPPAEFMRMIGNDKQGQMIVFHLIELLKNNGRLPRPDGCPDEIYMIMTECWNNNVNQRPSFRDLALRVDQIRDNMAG
Method: (§1) Activity Detection of Small Molecule Inhibitors of JAK Kinase
(§2) • (1) kinase reaction buffer • Prepare the kinase reaction buffer with the following components: 50 mM HEPES, pH 7.5, 1 mM EGTA, 10 mM MgCl2, 2 mM DTT, 0.01% Tween20 • (2) 1× detection buffer • To prepare detection buffer, dilute 10× detection buffer to 1× with deionized water 9:1 • (3) 4× kinase solution • Dilute JAK to 4× final concentration by JAK reaction buffer (JAK1: 40 nM, JAK2: 0.5 nM) • (4) 4× substrate solution • Dilute ULight™-JAK-1 (Tyr1023) substrate to 200 nM by kinase reaction buffer (final concentration: 50 nM) • (5) 4×ATP solution • Dilute ATP to 4× final concentration by kinase reaction buffer (JAK1: 160 μM, JAK2: 40 μM) • (6) 4× compound testing solution • DMSO dissolves the testing compound into 10 mM stock solution, then prepared to the desired concentration with 3-fold serial dilution, and 10 concentration points were set for each compound. Besides, the final concentration range of the testing compound is: 10 μM-0.5 nM • (7) 4× enzyme reaction termination liquid • 1× test buffer dissolves EDTA to 40 mM (EDTA final concentration: 10 mM) • (8) 4× antibody detection solution • 1× test buffer dilutes Eu labeled antibody (anti-phosphotyrosine (PT66)) to 8 nM (antibody final concentration: 2 nM) 2. Experimental Process • (1) Successively add 2.5 μL 4×JAK solution, and 2.5 μL of diluted 4× test compound solution in different concentrations to the 384 microporous plate, and set 2 multi-wells for each concentration. Meanwhile, set enzyme solution blank control group and negative control group (DMSO group). • (2) Shake the 384-hole plate, mix enzymes and compounds, centrifuge at 1000 rpm for 1 minute, and incubate at room temperature for 60 minutes • (3) Add 2.5 μL of 4× substrate solution to a 384-hole plate and centrifuge at 1000 rpm for 1 min • (4) Add 2.5 μL of 4×ATP solution to the 384 multi-well plate and centrifuge at 1000 rpm for 1 minute to initiate the enzyme reaction. • (5) JAK1 reacts at room temperature for 2 h, and JAK2 react at room temperature for 1 h. • (6) The final concentrations of each group of the JAK1 reaction are: JAK1: 10 nM, substrate: 50 nM, ATP: 40 uM, and the final concentration range of the test compound is: 10 μM-0.5 nM • The final concentrations of each group of the JAK2 reaction are: JAK2: 0.125 nM, substrate: 50 nM, ATP: 10 μM, and the final concentration range of test compounds is: 10 μM-0.5 nM • (7) After the enzyme reaction, add 5 μL of 4× enzyme reaction stop solution to each well of the 384-well plate with 1000 rpm, centrifuge for 1 minute, and incubate at room temperature for 5 min. • (8) Add 5 μL of 4× detection antibody solution to each well of a 384-well plate (final concentration of detection antibody is 2 nM) with 1000 rpm, centrifuge for 1 minute, and incubate at room temperature for 1 h. • (10) After antibody incubation, measure the signal value of each well on an Envision plate reader 3. Data Analysis • (1) Taking the enzyme solution blank control group as 100% inhibition rate and the negative control group (DMSO group) as 0% inhibition rate, calculate the percentage inhibition rate corresponding to each concentration of the tested compounds • (2) In GraphPad Prism software, nonlinear regression analysis is performed on the concentration logarithm of the test compound and the corresponding percentage inhibition rate to obtain the half-inhibitory concentration (IC50) of the test compound.

JAK1 = JAK1 (Homo sapiens, UniProt P23458); assay: JAK kinase inhibitor activity detection (ULight-JAK-1 substrate, Eu-labeled anti-phosphotyrosine antibody), JAK1; assay type: biochemical; conditions: JAK1 10 nM, substrate 50 nM, ATP 40 uM, 2 h room temperature
JAK1, sequence (P23458 whole entry, species assumed): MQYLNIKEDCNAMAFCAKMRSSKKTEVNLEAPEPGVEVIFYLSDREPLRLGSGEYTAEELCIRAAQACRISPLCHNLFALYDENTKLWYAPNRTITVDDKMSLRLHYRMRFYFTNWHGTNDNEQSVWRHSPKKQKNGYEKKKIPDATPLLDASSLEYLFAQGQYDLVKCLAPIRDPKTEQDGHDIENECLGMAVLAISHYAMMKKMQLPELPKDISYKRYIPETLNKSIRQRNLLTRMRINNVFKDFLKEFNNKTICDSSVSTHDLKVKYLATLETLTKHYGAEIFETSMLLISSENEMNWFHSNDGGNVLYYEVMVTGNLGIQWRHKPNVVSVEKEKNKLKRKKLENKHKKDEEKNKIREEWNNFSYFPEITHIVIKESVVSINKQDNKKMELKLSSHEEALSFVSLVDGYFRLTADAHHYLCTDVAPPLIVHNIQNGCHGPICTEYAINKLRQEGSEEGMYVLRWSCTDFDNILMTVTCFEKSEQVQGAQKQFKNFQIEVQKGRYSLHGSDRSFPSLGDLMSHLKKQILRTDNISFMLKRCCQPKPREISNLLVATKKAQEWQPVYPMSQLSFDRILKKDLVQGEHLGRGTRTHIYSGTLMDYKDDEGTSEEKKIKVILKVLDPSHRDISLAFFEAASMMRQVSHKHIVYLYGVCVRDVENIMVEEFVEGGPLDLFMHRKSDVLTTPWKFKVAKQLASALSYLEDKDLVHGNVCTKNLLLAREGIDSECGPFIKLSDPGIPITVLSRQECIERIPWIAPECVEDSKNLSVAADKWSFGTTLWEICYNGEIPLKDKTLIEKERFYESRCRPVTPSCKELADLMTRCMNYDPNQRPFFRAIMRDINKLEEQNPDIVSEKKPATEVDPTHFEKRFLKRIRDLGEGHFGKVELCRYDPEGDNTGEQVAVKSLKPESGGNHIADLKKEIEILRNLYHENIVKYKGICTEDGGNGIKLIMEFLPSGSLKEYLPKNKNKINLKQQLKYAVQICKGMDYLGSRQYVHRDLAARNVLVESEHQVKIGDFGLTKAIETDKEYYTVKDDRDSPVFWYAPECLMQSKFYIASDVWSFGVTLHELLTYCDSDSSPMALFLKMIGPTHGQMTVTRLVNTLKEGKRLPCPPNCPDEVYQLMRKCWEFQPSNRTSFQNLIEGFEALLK
Method: as §1, §2

Compound | pIC50 (JAK2) | pIC50 (JAK1)
CC1CN(C(=O)CC#N)CN1n1cnc2cnc3[nH]ccc3c21 (stereo not shown) [Example 30, 3-(4-methyl-3-(imidazo[4,5-d]pyrrolo[2,3-b]pyridine-1(6H)-yl)imidazoline-1-yl)-3-Oxopropionitrile] | 7.55 | 8.55
N#CCC(=O)N1CCN(n2cnc3cnc4[nH]ccc4c32)C1 [Example 31, 3-(3-(imidazo[4,5-d]pyrrolo[2,3-b]pyridine-1(6H)-yl)imidazoline-1-yl)-3-oxopropionitrile] | 7.14 | 8.16
CC[C@@H]1CN(C(=O)CC#N)CN1n1cnc2cnc3[nH]ccc3c21 [Example 32, (R)-3-(4-ethyl-3-(imidazo[4,5-d]pyrrolo[2,3-b]pyridine-1(6H)-yl)imidazoline-1-yl)-3-oxopropionitrile] | 7.82 | 8.17
N#CCC(=O)NC1CCN(n2cnc3cnc4[nH]ccc4c32)C1 (stereo not shown) [Example 33, 2-cyano-N-(1-(imidazo[4,5-d]pyrrolo[2,3-b]pyridine-1(6H)-yl)pyrrolidine-3-yl)acetamide] | 7.54 | 7.95
N#CCNC1CCN(n2cnc3cnc4[nH]ccc4c32)C1 (stereo not shown) [Example 34, 2-((1-(imidazo[4,5-d]pyrrolo[2,3-b]pyridine-1(6H)-yl)pyrrolidine-3-yl)amino)acetonitrile] | 7.29 | 7.13
CC[C@@H]1C[C@H](C#N)CN1n1cnc2cnc3[nH]ccc3c21 [Example 35, (3S,5R)-5-ethyl-1-(imidazo[4,5-d]pyrrole[2,3-b]pyridine(6H)-yl)pyrrolidine-3-carbonitrile] | 7.21 | 8.02
CC[C@@H]1C[C@@H](CC#N)CN1n1cnc2cnc3[nH]ccc3c21 [Example 36-1, 2-((3S,5R)-5-ethyl-1-(imidazo[4,5-d]pyrrolo[2,3-b]pyridine-1(6H)-yl)pyrrolidin-3-yl) acetonitrile] | 7.63 | 8.17
CC[C@@H]1C[C@H](CC#N)CN1n1cnc2cnc3[nH]ccc3c21 [Example 36-2, 2-((3R,5R)-5-ethyl-1-(imidazo[4,5-d]pyrrolo[2,3-b]pyridine-1(6H)-yl)pyrrolidin-3-yl) acetonitrile] | 6.90 | 7.36
